Patent US20060235078A1, “Insulin secretion potentiator” (Use-Techno Corporation, priority 2003, published 2006)

System: KK-Ay mice
Test: blood glucose level in KK-Ay mice (genetic type II diabetes model) after oral administration
Type: in vivo
Conditions: 10 mg/kg oral, blood sampled before and at 4 and 7 hours after administration (tormentic acid: before and 4 hours), n=4, p 0.05
Experimental: KK-Ay mice (CLEA Japan, Inc.), a genetic type II diabetes model, were used as the test animals. […] The animal feeding conditions were at constant temperature (22±2° C.) throughout the test period, and the light-dark period was 12 hours (light period: 9:00 am-9:00 pm). The feed (CE-2, CLEA Japan, Inc.) and water (tap water) were made freely available. The test substance was forcefully administered to the KK-Ay mice using a glass syringe and oral probe. The dose of each test substance was 10 mg/kg. Blood was sampled from the ocular fundus, immediately prior to and at 4 hours and 7 hours after the administration (for tormentic acid, immediately prior to and at 4 hours after the administration). The blood glucose was measured with a Glucose CII Test Wako (Wako Pure Chemical Industries Co., Ltd.).
The test substances used for this example were: corosolic acid (isolated from banaba leaves), maslinic acid (isolated from banaba leaves), asiatic acid (purchased from LKT Laboratories), 2α,19α-dihydroxy-3-oxo-urs-12-en-28-oic acid (isolated from loquat callus), ursolic acid (purchased from LKT Laboratories), oleanolic acid (purchased from LKT Laboratories), α-amyrin (purchased from LKT Laboratories), β-amyrin (purchased from LKT Laboratories), hederagenin (purchased from LKT Laboratories), 18β-glycyrrhetinic acid (purchased from Wako Pure Chemical Industries Co., Ltd.), sapindoside B (isolated from soapberry), and tormentic acid (isolated from loquat callus).
The blood glucose levels were measured using four KK-Ay mice for each test substance. The measurement results were recorded as mean±SE. Significant change in the blood glucose level was judged by Student's t-test with the significance level (p value) as 0.05.

| Structure (SMILES) | hypoglycemic effect (change in blood glucose level) |
| --- | --- |
| C[C@@H]1O[C@@H](O[C@H]2[C@H](O[C@H]3CC[C@@]4(C)[C@@H](CC[C@]5(C)[C@@H]4CC=C4[C@@H]6CC(C)(C)CC[C@]6(C(=O)O)CC[C@]45C)[C@]3(C)CO)OC[C@H](O)[C@@H]2O)[C@H](O)[C@H](O[C@@H]2OC[C@@H](O)[C@H](O)[C@H]2O)[C@H]1O [sapindoside B] | no definite hypoglycemic effect |
| C[C@H]1[C@H](C)CC[C@]2(C(=O)O)CC[C@]3(C)C(=CC[C@@H]4[C@@]5(C)C[C@@H](O)[C@H](O)[C@@](C)(CO)[C@@H]5CC[C@]43C)[C@H]12 [asiatic acid] | significant hypoglycemic effects |
| C[C@@H]1CC[C@]2(C(=O)O)CC[C@]3(C)C(=CC[C@@H]4[C@@]5(C)C[C@@H](O)[C@H](O)C(C)(C)[C@@H]5CC[C@]43C)[C@@H]2[C@]1(C)O [tormentic acid] | significant hypoglycemic effects |
| CC1(C)CC[C@]2(C(=O)O)CC[C@]3(C)C(=CC[C@@H]4[C@@]5(C)C[C@@H](O)[C@H](O)C(C)(C)[C@@H]5CC[C@]43C)[C@@H]2C1 [Maslinic acid, maslinic acid] | did not exhibit a significant hypoglycemic effect but did exhibit a tendency toward reducing blood glucose level |
| CC1(C)CC[C@]2(C(=O)O)CC[C@]3(C)C(=CC[C@@H]4[C@@]5(C)CC[C@H](O)[C@@](C)(CO)[C@@H]5CC[C@]43C)[C@@H]2C1 [hederagenin] | no definite hypoglycemic effect |
| CC1(C)CC[C@]2(C)CC[C@]3(C)C(=CC[C@@H]4[C@@]5(C)CC[C@H](O)C(C)(C)[C@@H]5CC[C@]43C)[C@@H]2C1 [β-amyrin] | no definite hypoglycemic effect |
| C[C@H]1[C@H](C)CC[C@]2(C(=O)O)CC[C@]3(C)C(=CC[C@@H]4[C@@]5(C)C[C@@H](O)[C@H](O)C(C)(C)[C@@H]5CC[C@]43C)[C@H]12 [corosolic acid] | significant hypoglycemic effects |
| C[C@H]1[C@H](C)CC[C@]2(C)CC[C@]3(C)C(=CC[C@@H]4[C@@]5(C)CC[C@H](O)C(C)(C)[C@@H]5CC[C@]43C)[C@H]12 [α-amyrin] | no definite hypoglycemic effect |
| C[C@H]1[C@H](C)CC[C@]2(C(=O)O)CC[C@]3(C)C(=CC[C@@H]4[C@@]5(C)CC[C@H](O)C(C)(C)[C@@H]5CC[C@]43C)[C@H]12 [ursolic acid] | no definite hypoglycemic effect |
| CC1(C)CC[C@]2(C(=O)O)CC[C@]3(C)C(=CC[C@@H]4[C@@]5(C)CC[C@H](O)C(C)(C)[C@@H]5CC[C@]43C)[C@@H]2C1 [oleanolic acid] | no definite hypoglycemic effect |
| C[C@@H]1CC[C@]2(C(=O)O)CC[C@]3(C)C(=CC[C@@H]4[C@@]5(C)C[C@@H](O)C(=O)C(C)(C)[C@@H]5CC[C@]43C)[C@@H]2[C@]1(C)O [2α,19α-dihydroxy-3-oxo-urs-12-en-28-oic acid] | significant hypoglycemic effects |
| CC1(C)[C@@H](O)CC[C@]2(C)[C@H]3C(=O)C=C4[C@@H]5C[C@@](C)(C(=O)O)CC[C@]5(C)CC[C@@]4(C)[C@]3(C)CC[C@@H]12 [18β-glycyrrhetinic acid] | no definite hypoglycemic effect |

System: borderline diabetic patients
Test: glucose tolerance test after administration of corosolic acid or placebo, blood insulin level (IRI) assayed
Type: in vivo, human
Conditions: 31 borderline diabetic patients, 10 mg oral, 75 g oral glucose load, 30 minutes after start of glucose tolerance test
Experimental: The following test was conducted to confirm that corosolic acid has an early insulin secretion stimulating effect. A glucose tolerance test was performed after administration of corosolic acid or a placebo, in a double-blind crossover manner, and the blood insulin level (IRI: immunoreactive insulin) was assayed. Significant change in the IRI was judged by Student's t-test with the significance level (p value) as 0.05.
First, 31 borderline diabetic patients as test subjects were orally administered corosolic acid (10 mg, ≧99% purity) or a placebo, and blood was sampled immediately thereafter with the blood insulin level at that time designated as the value at 0 minutes. Immediately after blood sampling, 75 g of glucose was orally administered to each test subject to start a glucose tolerance test, and blood was sampled after periods of 30 minutes, 60 minutes, 90 minutes, 120 minutes and 180 minutes for measurement of the blood insulin level.
FIG. 1 is a graph showing changes in the blood insulin levels during the glucose tolerance test. The horizontal axis represents time (minutes) after start of the glucose tolerance test, and the vertical axis represents IRI (μU/mL). In the graph, (a) is a case with administration of corosolic acid and (b) is a case with administration of the placebo.

| Structure (SMILES) | blood insulin level (IRI) compared to placebo |
| --- | --- |
| C[C@H]1[C@H](C)CC[C@]2(C(=O)O)CC[C@]3(C)C(=CC[C@@H]4[C@@]5(C)C[C@@H](O)[C@H](O)C(C)(C)[C@@H]5CC[C@]43C)[C@H]12 [corosolic acid] | significant increase in blood insulin level |

Same assay, conditions: 31 borderline diabetic patients, 10 mg oral, 75 g oral glucose load, 120 minutes after start of glucose tolerance test

| Structure (SMILES) | blood insulin level (IRI) compared to placebo |
| --- | --- |
| C[C@H]1[C@H](C)CC[C@]2(C(=O)O)CC[C@]3(C)C(=CC[C@@H]4[C@@]5(C)C[C@@H](O)[C@H](O)C(C)(C)[C@@H]5CC[C@]43C)[C@H]12 [corosolic acid] | significant drop in blood insulin level |
